Data published in paper PMC4909640 (EBioMedicine, 2016).

Tested on: enteroendocrine proglucagon-containing cells (L-cells)
Conditions: perfused mouse proximal small intestine, n = 4; basal to peak; P < 0.001

For `[Cl-].[K+]` [KCl], the “increase of GLP-1 secretion during infusion” value was ~ 10 fold and the “increase of oxyntomodulin secretion during infusion” value was ~ 9 fold.
